Assay [1] has as its target T1, Alpha-1A adrenergic receptor (Rattus norvegicus, UniProt P43140).
T1 sequence (P43140 whole entry): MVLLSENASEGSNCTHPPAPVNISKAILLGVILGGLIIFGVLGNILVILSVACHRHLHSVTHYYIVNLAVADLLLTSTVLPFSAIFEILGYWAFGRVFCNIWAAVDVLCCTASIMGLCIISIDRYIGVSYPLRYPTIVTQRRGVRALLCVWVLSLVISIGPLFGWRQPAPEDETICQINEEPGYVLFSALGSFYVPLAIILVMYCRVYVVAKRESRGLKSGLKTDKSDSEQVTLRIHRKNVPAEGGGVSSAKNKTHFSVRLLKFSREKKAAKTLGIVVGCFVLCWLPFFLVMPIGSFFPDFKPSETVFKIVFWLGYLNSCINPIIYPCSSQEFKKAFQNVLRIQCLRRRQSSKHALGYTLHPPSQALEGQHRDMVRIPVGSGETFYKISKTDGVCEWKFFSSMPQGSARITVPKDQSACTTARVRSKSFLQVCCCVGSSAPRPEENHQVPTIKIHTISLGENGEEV
The experiment in a line: DRUGMATRIX: Alpha-1A adrenergic receptor radioligand binding (ligand: prazosin). The format is cell membranes, Wistar, Submaxillary gland, Membrane. As to conditions: Not Active = under 50% inhibition at 10 µM.

Assay [2] has as its target Sodium-dependent noradrenaline transporter (Homo sapiens, UniProt P23975). Nature of the assay: DRUGMATRIX: Norepinephrine Transporter radioligand binding (ligand: [125I] RTI-55). The format is cell membranes, MDCK, Membrane. Conditions: Not Active = under 50% inhibition at 10 µM.
Assay [3] has as its target C-C chemokine receptor type 5 (Homo sapiens, UniProt P51681). The format is cell membranes, Membrane. Conditions: hek293. Also: in other assays of this panel Not Active means under 50% inhibition at 10 µM.
In assay [4] the target is T2, C-X-C chemokine receptor type 2 (Homo sapiens, UniProt P25025). Also: in other assays of this panel Not Active means under 50% inhibition at 10 µM.
T2 sequence (P25025 whole entry): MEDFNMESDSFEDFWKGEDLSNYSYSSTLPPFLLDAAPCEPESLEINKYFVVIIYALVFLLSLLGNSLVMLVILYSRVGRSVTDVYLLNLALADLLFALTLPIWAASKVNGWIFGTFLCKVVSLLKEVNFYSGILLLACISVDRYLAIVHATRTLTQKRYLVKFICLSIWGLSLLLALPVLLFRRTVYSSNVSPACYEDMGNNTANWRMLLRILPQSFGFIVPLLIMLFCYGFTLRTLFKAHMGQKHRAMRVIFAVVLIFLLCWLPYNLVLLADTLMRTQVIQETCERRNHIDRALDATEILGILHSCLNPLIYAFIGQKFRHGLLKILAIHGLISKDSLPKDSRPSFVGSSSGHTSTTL
In kind it is cell membranes, Membrane. Conditions: cho-k1.

The nature of assay [5]: DRUGMATRIX: Platelet-Derived Growth Factor (PDGF) radioligand binding (ligand: [125I] PDGF). In kind it is cell-based. As to conditions: nih3t3; Not Active = under 50% inhibition at 10 µM.
For assay [6], the target named is Mitogen-activated protein kinase 14 (Homo sapiens, UniProt Q16539). Also on record: species or system Escherichia coli.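 Also: inhibition of p38alpha enzyme activity in a biochemical kinase assay, with myelin basic protein serving as substrate; in other assays of this panel Not Active means under 50% inhibition at 10 µM.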
Sequence of Mitogen-activated protein kinase 14 (Q16539 whole entry): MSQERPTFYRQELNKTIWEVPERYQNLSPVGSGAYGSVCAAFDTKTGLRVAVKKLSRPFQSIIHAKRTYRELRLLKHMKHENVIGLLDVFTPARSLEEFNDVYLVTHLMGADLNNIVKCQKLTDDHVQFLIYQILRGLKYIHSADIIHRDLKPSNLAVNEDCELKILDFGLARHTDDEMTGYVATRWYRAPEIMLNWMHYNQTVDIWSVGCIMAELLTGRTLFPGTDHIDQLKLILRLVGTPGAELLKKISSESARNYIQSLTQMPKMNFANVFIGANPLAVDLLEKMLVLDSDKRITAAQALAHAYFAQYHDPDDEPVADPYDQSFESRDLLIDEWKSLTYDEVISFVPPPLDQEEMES
The next assay has as its target Acetylcholinesterase (Homo sapiens, UniProt P22303). The experiment in a line: DRUGMATRIX: Acetylcholinesterase enzyme inhibition (substrate: acetylthiocholine). In kind it is cell-based, HEK293. Conditions: hek293; Not Active = under 50% inhibition at 10 µM.

The values below come from ChEMBL document CHEMBL1909046, “DrugMatrix in vitro pharmacology data”.

*1 amine or outer side, *2 acyl side, *3 side chain or, on linkers, in order; H or OH if unused. Where a SMILES comes first, the peptide text is derived from it. Bridges are numbered along the chain shown (N, C = ends). Roman numbers before positions name the chains, in order. [ ]: non-standard residue; d: D form. Actinocin(1to9) = Cc1c2oc3c(C)ccc(C(=O)[*:2])c3nc-2c(C(=O)[*:1])c(N)c1=O; NMeV = CN[C@H](C(=O)O)C(C)C; Sar = CNCC(=O)O

Sequence of C-C chemokine receptor type 5 (P51681 whole entry): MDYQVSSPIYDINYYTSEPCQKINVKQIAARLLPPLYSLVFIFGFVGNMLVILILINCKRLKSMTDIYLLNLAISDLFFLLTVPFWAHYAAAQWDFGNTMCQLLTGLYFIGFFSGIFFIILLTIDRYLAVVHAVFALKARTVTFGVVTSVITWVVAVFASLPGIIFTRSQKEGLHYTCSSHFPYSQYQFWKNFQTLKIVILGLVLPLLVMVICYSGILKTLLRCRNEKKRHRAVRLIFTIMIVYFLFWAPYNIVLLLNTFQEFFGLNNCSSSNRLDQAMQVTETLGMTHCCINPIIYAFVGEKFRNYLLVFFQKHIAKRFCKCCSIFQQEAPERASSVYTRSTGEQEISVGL
Sequence of Sodium-dependent noradrenaline transporter (P23975 whole entry): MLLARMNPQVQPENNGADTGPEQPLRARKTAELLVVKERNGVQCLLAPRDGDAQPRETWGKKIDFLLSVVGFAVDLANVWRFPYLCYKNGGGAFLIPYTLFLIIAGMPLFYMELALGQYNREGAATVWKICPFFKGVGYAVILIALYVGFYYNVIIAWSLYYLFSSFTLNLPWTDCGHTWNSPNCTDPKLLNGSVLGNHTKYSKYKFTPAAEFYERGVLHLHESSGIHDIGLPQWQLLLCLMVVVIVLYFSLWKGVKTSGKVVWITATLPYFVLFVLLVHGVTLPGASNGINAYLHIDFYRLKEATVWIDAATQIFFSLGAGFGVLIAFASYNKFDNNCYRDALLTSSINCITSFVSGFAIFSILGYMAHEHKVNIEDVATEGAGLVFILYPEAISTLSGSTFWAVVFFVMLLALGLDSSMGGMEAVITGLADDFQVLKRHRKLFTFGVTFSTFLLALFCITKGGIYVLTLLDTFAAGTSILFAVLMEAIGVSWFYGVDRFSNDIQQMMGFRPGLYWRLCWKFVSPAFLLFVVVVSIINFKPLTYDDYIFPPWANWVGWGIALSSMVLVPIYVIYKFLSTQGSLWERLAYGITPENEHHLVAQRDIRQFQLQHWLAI
Sequence of Acetylcholinesterase (P22303 whole entry): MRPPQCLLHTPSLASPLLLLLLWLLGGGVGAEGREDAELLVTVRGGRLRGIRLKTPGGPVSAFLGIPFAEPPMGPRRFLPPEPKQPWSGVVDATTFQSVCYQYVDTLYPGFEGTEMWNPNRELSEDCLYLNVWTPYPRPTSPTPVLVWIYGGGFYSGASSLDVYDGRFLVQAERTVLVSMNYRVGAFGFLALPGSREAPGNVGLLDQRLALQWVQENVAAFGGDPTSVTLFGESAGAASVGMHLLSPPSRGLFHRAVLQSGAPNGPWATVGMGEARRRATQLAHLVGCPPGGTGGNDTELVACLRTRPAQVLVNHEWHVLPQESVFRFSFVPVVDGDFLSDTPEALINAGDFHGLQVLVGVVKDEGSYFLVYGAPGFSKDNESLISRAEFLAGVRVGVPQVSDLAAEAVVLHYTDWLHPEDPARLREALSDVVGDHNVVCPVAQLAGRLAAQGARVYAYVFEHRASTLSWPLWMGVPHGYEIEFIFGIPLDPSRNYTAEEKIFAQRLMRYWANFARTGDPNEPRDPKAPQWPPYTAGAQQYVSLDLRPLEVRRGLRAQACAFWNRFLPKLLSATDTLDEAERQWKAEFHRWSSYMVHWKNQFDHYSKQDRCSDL

`COc1ccc(C[C@H]2NC[C@H](O)[C@H]2OC(C)=O)cc1` [ANISOMYCIN]: the IC50 result in assay [1], in assay [2] (mdck), in assay [3], in assay [4], in assay [5] and in assay [6] was “Not Active” in each case. The IC50 (usually the concentration needed to halve the response being measured) against Acetylcholinesterase is given as “Not Active”. Further, the Ki entry in assay [1], in assay [2] (mdck), in assay [3], in assay [4], in assay [5] and in assay [6] was “Not Active” each time. Besides, the Ki (commonly the dissociation constant of the complex between target and ligand, obtained from inhibition or displacement) at Acetylcholinesterase was “Not Active”.
Take `CNNCc1ccc(C(=O)NC(C)C)cc1` [PROCARBAZINE]: the IC50 result in assay [1], in assay [2] (mdck), in assay [3], in assay [4], in assay [5] and in assay [6] was “Not Active” throughout. The IC50 result at Acetylcholinesterase is “Not Active”. The Ki entry in assay [5] was “Not Active”.
Consider `Cc1onc(O)c1CC(N)C(=O)O` (racemic) [(R,S)-AMPA], for which the 50% inhibitory concentration (IC50) result in assay [1], in assay [2] (mdck), in assay [3], in assay [4], in assay [5] and in assay [6] was “Not Active” in each case. The half-maximal inhibitory concentration (IC50) entry against Acetylcholinesterase is listed as “Not Active”. Besides, the inhibition constant Ki result in assay [5] is recorded as “Not Active”.
Regarding `Cc1c(O)c(=O)ccn1C` [DEFERIPRONE], the IC50 result in assay [1], in assay [2] (mdck), in assay [3], in assay [4], in assay [5] and in assay [6] was “Not Active” each time. Further, the 50% inhibitory concentration (IC50) result against Acetylcholinesterase is listed as “Not Active”. In assay [5], the Ki result was “Not Active”.
On to `Nc1ncn([C@@H]2O[C@H](CO)[C@@H](O)[C@H]2O)c(=O)n1` [AZACITIDINE], for which the half-maximal inhibitory concentration (IC50) entry in assay [1], in assay [2] (mdck), in assay [3], in assay [4], in assay [5] and in assay [6] was “Not Active” each time. In addition, the 50% inhibitory concentration (IC50) entry against Acetylcholinesterase was “Not Active”. Besides, the inhibition constant Ki entry in assay [5] was “Not Active”.
Consider `CCn1cc(C(=O)O)c(=O)c2cc(F)c(N3CCNCC3)cc21` [NORFLOXACIN], for which the IC50 entry in assay [1], in assay [2] (mdck), in assay [3], in assay [4], in assay [5] and in assay [6] was “Not Active” in each case. Further, at Acetylcholinesterase, the concentration for half-maximal inhibition (IC50) result is given as “Not Active”. Further, the Ki result in assay [5] is listed as “Not Active”.
Turning to `CN(C)CCCN1c2ccccc2Sc2ccc(Cl)cc21` [CHLORPROMAZINE], the IC50 entry (in assay [3]; in assay [4]; in assay [5]; in assay [6]; against Acetylcholinesterase) was “Not Active” throughout. Moreover, the Ki result in assay [5] was “Not Active”.
In the case of `CCOC(=O)C1=C(COCCN)NC(C)=C(C(=O)OC)C1c1ccccc1Cl` (stereo unspecified) [AMLODIPINE], the IC50 result in assay [1], in assay [2] (mdck), in assay [3], in assay [4], in assay [5] and in assay [6] was “Not Active” throughout. In addition, at Acetylcholinesterase, the IC50 result is listed as “Not Active”. The Ki entry in assay [5] was “Not Active”.
Consider `CC1Cc2ccccc2N1NC(=O)c1ccc(Cl)c(S(N)(=O)=O)c1` (stereo unspecified) [INDAPAMIDE], for which the IC50 result in assay [1], in assay [2] (mdck), in assay [3], in assay [4], in assay [5] and in assay [6] was “Not Active” throughout. Besides, on Acetylcholinesterase, the half-inhibitory concentration (IC50) entry was “Not Active”. Besides, the Ki entry in assay [5] is “Not Active”.
For the compound LEAD (II) ACETATE, the IC50 entry in assay [1], in assay [2] (mdck), in assay [3], in assay [4], in assay [5] and in assay [6] was “Not Active” throughout. In addition, on Acetylcholinesterase, the IC50 entry was “Not Active”. The inhibition constant (Ki) result in assay [1], in assay [2] (mdck), in assay [3], in assay [4], in assay [5] and in assay [6] was “Not Active” in each case. The Ki entry on Acetylcholinesterase was “Not Active”.
In the case of `Cc1c2oc3c(C)ccc(C(=O)N[C@@H]4C(=O)N[C@H](C(C)C)C(=O)N5CCC[C@H]5C(=O)N(C)CC(=O)N(C)[C@@H](C(C)C)C(=O)O[C@@H]4C)c3nc-2c(C(=O)N[C@@H]2C(=O)N[C@H](C(C)C)C(=O)N3CCC[C@H]3C(=O)N(C)CC(=O)N(C)[C@@H](C(C)C)C(=O)O[C@@H]2C)c(N)c1=O` [DACTINOMYCIN] (I: T[dV]P[Sar][NMeV] / II: T[dV]P[Sar][NMeV]; ester I:1-I:C, II:1-II:C; linker I:N-II:N via Actinocin(1to9)), the half-maximal inhibitory concentration (IC50) entry in assay [1], in assay [2] (mdck), in assay [3], in assay [4], in assay [5] and in assay [6] was “Not Active” in each case. Also, on Acetylcholinesterase, the IC50 result is “Not Active”. Besides, in assay [5], the Ki result is “Not Active”.
As for `NCCCCCC(=O)O` [AMINOCAPROIC ACID], the IC50 entry in assay [1], in assay [2] (mdck), in assay [3], in assay [4], in assay [5] and in assay [6] was “Not Active” throughout. Also, on Acetylcholinesterase, the 50% inhibitory concentration (IC50) result is on record as “Not Active”. For the same compound, in assay [5], the inhibition constant (Ki) entry is recorded as “Not Active”.
Take `c1ccc(Nc2ccc(Nc3ccccc3)cc2)cc1`: the IC50 entry was “Not Active” in assay [1]; 0.786 µM in assay [2] (read-out: IC50); “Not Active” in assay [3]; “Not Active” in assay [4]; “Not Active” in assay [5]; “Not Active” in assay [6]. Further, on Acetylcholinesterase, the IC50 result is recorded as “Not Active”. Besides, the Ki was 0.78 µM in assay [2] (read-out: Ki) and “Not Active” in assay [5].
With `NC(=O)N1c2ccccc2CCc2ccccc21`, the half-maximal inhibitory concentration (IC50) result in assay [1], in assay [2] (mdck), in assay [3], in assay [4], in assay [5] and in assay [6] was “Not Active” throughout. Moreover, the IC50 entry at Acetylcholinesterase was “Not Active”. Moreover, the Ki entry in assay [5] is recorded as “Not Active”.
Turning to `Cc1ccc(-c2cc(C(F)(F)F)nn2-c2ccc(S(N)(=O)=O)cc2)cc1` [CELECOXIB], the IC50 result in assay [1] was “Not Active”; in assay [2] (read-out: IC50), 7.31 µM; in assay [3] it was “Not Active”; in assay [4], “Not Active”; in assay [5], “Not Active”; in assay [6] it was “Not Active”. Besides, the half-maximal inhibitory concentration (IC50) entry against Acetylcholinesterase is on record as “Not Active”. Further, the Ki in assay [2] (read-out: Ki) is 7.25 µM; in assay [5] it was “Not Active”.
As to `Cc1onc(-c2ccccc2Cl)c1C(=O)N[C@@H]1C(=O)N2[C@@H]1SC(C)(C)[C@@H]2C(=O)O` [CLOXACILLIN], the IC50 result in assay [1], in assay [2] (mdck), in assay [3], in assay [4], in assay [5] and in assay [6] was “Not Active” each time. Moreover, the IC50 entry at Acetylcholinesterase was “Not Active”. Further, the inhibition constant (Ki) result in assay [5] is recorded as “Not Active”.
Regarding `Cc1ccc(N(CC2=NCCN2)c2cccc(O)c2)cc1` [PHENTOLAMINE], the IC50 entry (in assay [2] (mdck); in assay [3]; in assay [4]; in assay [5]; in assay [6]; at Acetylcholinesterase) was “Not Active” throughout. Further, in assay [5], the inhibitory constant (Ki) result is listed as “Not Active”.
With `CNCCCN1c2ccccc2CCc2ccccc21` [DESIPRAMINE], the IC50 entry (in assay [1]; in assay [3]; in assay [4]; in assay [5]; in assay [6]; against Acetylcholinesterase) was “Not Active” in each case. In addition, the inhibition constant Ki result in assay [5] was “Not Active”.
On to `Clc1cccc(Cl)c1NC1=NCCN1` [CLONIDINE], for which the half-inhibitory concentration (IC50) entry (in assay [2] (mdck); in assay [3]; in assay [4]; in assay [5]; in assay [6]; against Acetylcholinesterase) was “Not Active” each time. For the same compound, in assay [5], the Ki result was “Not Active”.
